Reference: BindingDB's records for patent US20260062376 (Research Triangle Institute, 2026)

Target: Cannabinoid receptor 1 (Mus musculus, UniProt P47746)
Experiment: [35S]GTPγS Binding Assay
Description: For receptor signaling, membranes (10 μg protein) from either ICR mouse cerebellum mice (6-8 weeks old; Enviga International, Indianapolis, Indiana, United States of America) or HEK cells stably expressing CB1 receptor were preincubated in assay buffer for 10 min with 3 units/ml adenosine deaminase then incubated for 60 min at 30° C. with 30 μM GDP and 0.1 nM [35S]GTPγS (Perkin Elmer Life Sciences, Boston, Massachusetts, United States of America). Non-specific binding was determined by adding 30 μM unlabeled GTPγS.

Cannabinoid receptor 1, sequence (P47746 whole entry): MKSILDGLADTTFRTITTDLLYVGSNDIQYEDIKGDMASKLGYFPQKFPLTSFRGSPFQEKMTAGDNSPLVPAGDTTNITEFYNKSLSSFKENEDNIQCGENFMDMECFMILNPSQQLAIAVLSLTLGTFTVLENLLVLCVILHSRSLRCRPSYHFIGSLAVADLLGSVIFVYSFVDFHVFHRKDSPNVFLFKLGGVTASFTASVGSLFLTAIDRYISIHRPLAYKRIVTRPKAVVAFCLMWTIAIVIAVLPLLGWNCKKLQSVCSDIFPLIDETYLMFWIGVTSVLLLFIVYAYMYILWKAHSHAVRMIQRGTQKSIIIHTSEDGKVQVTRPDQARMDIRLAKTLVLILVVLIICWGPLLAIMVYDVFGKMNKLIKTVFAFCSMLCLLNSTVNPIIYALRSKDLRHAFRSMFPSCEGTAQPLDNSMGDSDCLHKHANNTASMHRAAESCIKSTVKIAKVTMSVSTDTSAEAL

IC50	SMILES
229 nM	O=c1c(NCCc2cccc(Cl)c2)c(Nc2ccc(Cl)cc2)c1=O [US20260062376, Compound 7]
275 nM	O=c1c(NCCc2ccc(Cl)cc2)c(Nc2ccc(Cl)cc2)c1=O [US20260062376, Compound 13]
166 nM	Cc1cccc(CCNc2c(Nc3ccc(Cl)cc3)c(=O)c2=O)c1 [US20260062376, Compound 14]
81.3 nM	Cc1ccc(CCNc2c(Nc3ccc(Cl)cc3)c(=O)c2=O)cc1 [US20260062376, Compound 15]
661 nM	O=c1c(NCCc2ccccc2F)c(Nc2ccc(Cl)cc2)c1=O [US20260062376, Compound 24]
240 nM	O=c1c(NCCc2cccc(F)c2)c(Nc2ccc(Cl)cc2)c1=O [US20260062376, Compound 25]
1100 nM	CN(C)c1cccc(CCNc2c(Nc3ccc(Cl)cc3)c(=O)c2=O)c1 [US20260062376, Compound 26]
40.7 nM	CN(C)c1ccc(CCNc2c(Nc3ccc(Cl)cc3)c(=O)c2=O)cc1 [US20260062376, Compound 27]
1780 nM	O=c1c(NCCc2ccccn2)c(Nc2ccc(Cl)cc2)c1=O [US20260062376, Compound 36]
871 nM	O=c1c(NCCc2ccc(Br)cc2)c(Nc2ccc(Cl)cc2)c1=O [US20260062376, Compound 38]
1350 nM	O=c1c(NCCc2cccs2)c(Nc2ccc(Cl)cc2)c1=O [US20260062376, Compound 39]
295 nM	O=c1c(NCCc2ccc(Cl)c(Cl)c2)c(Nc2ccc(Cl)cc2)c1=O [US20260062376, Compound 41]
331 nM	Cc1ccc(CCNc2c(Nc3ccc(Cl)cc3)c(=O)c2=O)cc1C [US20260062376, Compound 42]
4790 nM	O=c1c(NCCc2cccc(O)c2)c(Nc2ccc(Cl)cc2)c1=O [US20260062376, Compound 43]
468 nM	CCN(CC)c1ccc(CCNc2c(Nc3ccc(Cl)cc3)c(=O)c2=O)cc1 [US20260062376, Compound 48]

SMILES	IC50
Cc1ccccc1CCNc1c(Nc2ccc(Cl)cc2)c(=O)c1=O [US20260062376, Compound 35]	2690 nM
O=c1c(NCCc2ccc(Cl)cc2Cl)c(Nc2ccc(Cl)cc2)c1=O [US20260062376, Compound 44]	525 nM
